From patent publication US9284325B2, “Spectinamides as anti-tuberculosis agents” (UNIVERSITY OF TENNESSEE RESEARCH FOUNDATION, priority 2009, dated 2016)
Where a name gives a salt, the structure may show the parent alone. Read-outs that look alike come from different tables or passages of the source.

What was measured:
E. coli K12 = assay: MIC determination by microbroth dilution; format: cell-based, Escherichia coli; settings: for MIC: Escherichia coli, K12
[1] = system: Strenotrophomonas maltophilia ATCC 13637; assay: MIC determination by microbroth dilution; format: cell-based
[2] = system: Acinetobacter baumannii ATCC 19606; assay: MIC determination by microbroth dilution; format: cell-based; settings: for MIC: ATCC19606
[3] = system: Burkholderia cepacia ATCC 25416; assay: MIC determination by microbroth dilution; format: cell-based; settings: for MIC: ATCC25416, read-out: MIC B. cepcia
[4] = system: Strep. pneumoniae DAW27 or strain R6; assay: MIC determination by microbroth dilution; format: cell-based, Streptococcus pneumoniae; settings: Strep. pneumoniae DAW27 or strain R6 (for 1443-1544); for MIC: Streptococcus pneumoniae, read-out: MIC S. pneumoniae
P. aeruginosa PAO1 = assay: MIC determination by microbroth dilution; format: cell-based, Pseudomonas aeruginosa; settings: for MIC: Pseudomonas aeruginosa
B. anthracis Sterne 34F2 = assay: microbe, parasite or virus in culture; format: cell-based, Bacillus anthracis; settings: for MIC: Bacillus anthracis, STERNE34F2, read-out: MIC B. anthracis 34F2
[5] = system: Proteus vulgaris ATCC 33420; assay: MIC determination by microbroth dilution; format: cell-based; settings: for MIC: ATCC33420
[6] = system: Proteus mirabilis ATCC 25933; assay: MIC determination by microbroth dilution; format: cell-based; settings: for MIC: ATCC25933
[7] = system: Klebsiella pneumoniae ATCC 33495; assay: MIC determination by microbroth dilution; format: cell-based; settings: for MIC: ATCC33495
E. faecalis ATCC 33186 = assay: MIC determination by microbroth dilution; format: cell-based, Enterococcus faecalis; settings: for MIC: Enterococcus faecalis, ATCC33186
[8] = system: Strep. pyogenes ATCC 700294; assay: MIC determination by microbroth dilution; format: cell-based, Streptococcus pyogenes; settings: for MIC: Streptococcus pyogenes, ATCC700294, read-out: MIC S. pyogenes
[9] = system: S. aureus 8325 or strain ATCC 29213; assay: MIC determination by microbroth dilution; format: cell-based, Staphylococcus aureus; settings: S. aureus 8325 or strain ATCC 29213 (for 1471-1544); for MIC: Staphylococcus aureus, ATCC29213
M. tuberculosis H37Rv = assay: MIC determination by microbroth dilution, anti-tuberculosis activity; format: cell-based, Mycobacterium tuberculosis
E. coli K12 ΔtolC = assay: microbe, parasite or virus in culture; format: cell-based; settings: for MIC: Escherichia coli, read-out: MIC E. coli K12 ΔtolC
E. coli ribosomes = format: biochemical; settings: for IC50, 50% inhibition of luciferase biosynthesis in S30 assay: E. coli S30 transcription/translation assay; for relative inhibitory activity on luciferase production: tested at 0.66 and 6.6 μM, FIG. 5
[10] = Mycobacterium tuberculosis, H37RV, 168 h, read-out: MIC

Row | Compound | MIC (E. coli K12) [µg/mL] | MIC [1] [µg/mL] | MIC [2] [µg/mL] | MIC [3] [µg/mL] | MIC [4] [µg/mL] | MIC (P. aeruginosa PAO1) [µg/mL] | MIC (B. anthracis Sterne 34F2) [µg/mL] | MIC [5] [µg/mL] | MIC [6] [µg/mL] | MIC [7] [µg/mL] | MIC (E. faecalis ATCC 33186) [µg/mL] | MIC [8] [µg/mL] | MIC [9] [µg/mL] | MIC (M. tuberculosis H37Rv; [10]) [µg/mL] | MIC (E. coli K12 ΔtolC) [µg/mL] | IC50, 50% inhibition of luciferase biosynthesis in S30 assay (E. coli ribosomes) [µg/mL] | relative inhibitory activity on luciferase production (E. coli ribosomes) | other results
1 | CN[C@@H]1[C@H](O)[C@H](NC)C2O[C@]3(O)C(OC2[C@H]1O)O[C@H](C)C[C@H]3NC(=O)CNC(C)(C)C (stereo partly drawn) [Compound 1351, 3′-Dihydro-3′-deoxy-4(R)-(tert-butylamino)-acetylamino spectinomycin Dihydrochloride] | > 200 | 50 | > 200 | > 200 | 200 | 200 | 50 | > 200 | > 200 | 200 | > 200 | 100 | 200 | 25 | 50 | 0.22 | next most active | 
2 | CN[C@@H]1[C@H](O)[C@H](NC)C2O[C@]3(O)C(OC2[C@H]1O)O[C@H](C)C[C@H]3NC(=O)Cc1ccc(F)cn1 (stereo partly drawn) [Compound 1445, 3′-Dihydro-3′-deoxy-4(R)-(5-fluoropyridin-2-yl)acetylamino spectinomycin trihydrobromide] | 100 | > 200 | > 200 | > 200 | 12.5 | > 200 | 25 | > 200 | > 200 | 100 | 25 | 12.5 | 25 | 0.4 | 200 | 0.25 |  | 
3 | CN[C@@H]1[C@H](O)[C@H](NC)C2O[C@]3(O)C(OC2[C@H]1O)O[C@H](C)C[C@H]3NC(=O)Cc1ncccn1 (stereo partly drawn) [Compound 1439, 3′-Dihydro-3′-deoxy-4(R)-(pyrimidin-2yl)acetylamino spectinomycin Dihydrochloride] | 100 | > 200 | > 200 | > 200 | 12.5 | 50 | 50 | > 200 | > 200 | > 200 | 50 | > 200 | 25 | > 200 | 12.5 | 2.63 | less active than 1329 | 
4 | CN[C@@H]1[C@H](O)[C@H](NC)C2O[C@]3(O)C(OC2[C@H]1O)O[C@H](C)C[C@H]3NC(=O)CCc1cccnc1 (stereo partly drawn) [Compound 1299, 3′-Dihydro-3′-deoxy-4(R)-(3-pyridin-3-yl)propionylamino spectinomycin Dihydrochloride] | > 200 | > 200 | > 200 | > 200 | 200 | > 200 | 200 | > 200 | > 200 | > 200 | > 200 | 200 | 200 | 25 | 200 | 0.97 |  | 
5 | CN[C@@H]1[C@H](O)[C@H](NC)C2O[C@]3(O)C(OC2[C@H]1O)O[C@H](C)C[C@H]3NC(=O)Cc1ccccc1OC (stereo partly drawn) [Compound 1448, 3′-Dihydro-3′-deoxy-4(R)-(2-methoxy-phenyl)acetylamino spectinomycin Dihydrochloride] | > 200 | > 200 | > 200 | 200 | 25 | > 200 | > 200 | > 200 | > 200 | > 200 | > 200 | 25 | > 200 | 200 | > 200 | 2.41 |  | 
6 | CN[C@@H]1[C@H](O)[C@H](NC)C2O[C@]3(O)C(OC2[C@H]1O)O[C@H](C)C[C@H]3NC(=O)Cc1ccc(F)cc1 (stereo partly drawn) [Compound 1367, 3′-Dihydro-3′-deoxy-4(R)-(4-fluoro-phenyl)-acetylamino spectinomycin Dihydrochloride] | 200 | > 200 | > 200 | > 200 | 50 | 100 | 50 | > 200 | > 200 | > 200 | 200 | 50 | 50 | 3.1 | 50 | 1.05 |  | 
7 | CN[C@@H]1[C@H](O)[C@H](NC)C2O[C@]3(O)C(OC2[C@H]1O)O[C@H](C)C[C@H]3NC(=O)CC(C)C (stereo partly drawn) [Compound 1369, 3′-Dihydro-3′-deoxy-4(R)-(3-methyl)-butanoylamino spectinomycin Dihydrochloride] | > 200 | > 200 | > 200 | > 200 | > 200 | > 200 | 200 | > 200 | > 200 | > 200 | > 200 | > 200 | > 200 | 200 | > 200 |  | less active than 1329 | 
8 | CN[C@@H]1[C@H](O)[C@H](NC)C2O[C@]3(O)C(OC2[C@H]1O)O[C@H](C)C[C@H]3NC(=O)Cc1cccnc1 (stereo partly drawn) [Compound 1368, 3′-Dihydro-3′-deoxy-4(R)-(pyridin-3-yl)acetylamino spectinomycin Dihydrochloride] | 100 | > 200 | > 200 | > 200 | > 200 | > 200 | 6.25 | > 200 | > 200 | > 200 | > 200 | > 200 | 50 | 12.5 | > 200 | 1.08 |  | 
9 | 3′-Dihydro-3′-deoxy-4(R)-dodecylamino spectinomycin Trihydrochloride [Compound 1421] |  |  |  |  |  |  |  |  |  |  |  |  |  |  |  |  | less active than 1329 | MIC E. coli K12 (E. coli K12; E. coli K12): 200 µg/mL; MIC S. mal [1]: 12.5 µg/mL; MIC A. bau. [2]: 50 µg/mL; MIC B. cepcia [3]: 50 µg/mL; MIC S. pneumoniae [4]: 200 µg/mL; MIC P. aer. (P. aeruginosa PAO1): >200 µg/mL; MIC B. anthracis 34F2 (B. anthracis Sterne 34F2): 200 µg/mL; MIC P. vul [5]: >200 µg/mL; MIC P. mir [6]: >200 µg/mL; MIC K. pneu. [7]: >200 µg/mL; MIC E. faecalis (E. faecalis ATCC 33186): 200 µg/mL; MIC S. pyogenes [8]: 50 µg/mL; MIC S. aureus [9]: 200 µg/mL; MIC (M. tuberculosis H37Rv): 25 µg/mL; MIC E. coli K12 ΔtolC (E. coli K12 ΔtolC; tolC knockout strain, defective multi-drug efflux pump): 50 µg/mL
10 | CN[C@@H]1[C@H](O)[C@H](NC)C2O[C@]3(O)C(OC2[C@H]1O)O[C@H](C)C[C@H]3NCCC(C)C (stereo partly drawn) [Compound 1420, 3′-Dihydro-3′-deoxy-4(R)-(3-methyl)butylamino spectinomycin Trihydrochloride] | 100 | 200 | > 200 | > 200 | 100 | 200 | 50 | > 200 | > 200 | > 200 | 200 | 200 | 100 | 200 | 25 |  | inhibited well | 
11 | CN[C@@H]1[C@H](O)[C@H](NC)C2O[C@]3(O)C(OC2[C@H]1O)O[C@H](C)C[C@H]3NC(=O)Cc1ccc(OC)cc1 (stereo partly drawn) [Compound 1446, 3′-Dihydro-3′-deoxy-4(R)-(4-methoxy-phenyl)acetylamino spectinomycin Dihydrochloride] | 200 | > 200 | > 200 | > 200 | 6.25 | > 200 | 100 | > 200 | > 200 | 200 | 200 | 6.25 | > 200 | 12.5 | > 200 | 0.68 |  | 
